Assay results from EP1724268A1, “COMPOUND HAVING TGF-BETA INHIBITORY ACTIVITY AND PHARMACEUTICAL COMPOSITION CONTAINING SAME” (KIRIN BEER KABUSHIKI KAISHA, priority 2004, dated 2005).
Where two headings read alike, the source gives them in different places.

System: TGFβ signal
Experiment: TGFβ signal inhibitory activity, (SBE)4-Luc reporter in A549 cells (Test Examples 1A and 1B)
Assay type: cell-based, human
Settings: Homo sapiens, A549, read-out: TGFβ inhibition rate, %; for inhibition at 1 µM: test compound 1 µM
Method in brief: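 Stable A549 line carrying (SBE)4-Luc Smad3-binding reporter treated with compound plus TGFβ-1 (2 ng/ml) for 4 hr; luciferase read by chemiluminescence. Percent inhibition relative to TGFβ-only and untreated cells, tested at 3 µM and 10 µM, some also at 1 µM.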

[1] = 3 µM, compounds of Reference Examples (Test Example 1B)
[2] = 10 µM, compounds of Reference Examples (Test Example 1B)
[3] = test compound 3 µM, Reference Examples, Table 1B
[4] = test compound 10 µM, Reference Examples, Table 1B
[5] = test compound 3 µM, TGFβ-1 2 ng/ml, 4 hr, Table 1A
[6] = test compound 10 µM, TGFβ-1 2 ng/ml, 4 hr, Table 1A

Row | SMILES | inhibition at 3 µM [1] [%] | inhibition at 10 µM [2] [%] | inhibition at 3 µM [3] [%] | inhibition at 10 µM [4] [%] | further results
1 | COc1cc2nccc(Oc3ccc4oc(=O)cc(C)c4c3)c2cc1OC [r306] | 20 | 53 | – | – | –
2 | COc1ccc(Oc2ccnc3cc(OC)c(OC)cc23)c(/C=C/c2ccccc2)c1 [Compound r7, 6,7-Dimethoxy-4-{4-methoxy-2-[(E)-2-phenyl-1-ethenyl]phenoxy}quinoline] | – | – | 13 | 54 | –
3 | COc1cc2c(Oc3cc4ccccc4nc3C)ccnc2cc1OCCCl [Compound r353] | 54 | 86 | – | – | –
4 | COc1cc2nccc(Oc3ccccc3Cc3ccccc3)c2cc1OC [Compound r1, 4-(2-Benzylphenoxy)-6,7-dimethoxyquinoline] | – | – | 5 | 53 | –
5 | COc1cc2c(Oc3cc(C)c(C)nc3-c3ccccc3)ccnc2cc1O [Compound r332] | 97 | 100 | – | – | –
6 | COc1cc2nccc(Oc3ccc(C)nc3Cc3cccc(C)n3)c2cc1OC [r215] | 72 | 99 | – | – | –
7 | COc1ccc(Oc2ccnc3cc(OC)c(OC)cc23)c(C(=O)NC(C)C)c1 [Compound r111] | – | – | 29 | 92 | –
8 | COc1cc2nccc(Oc3cc(C)c(C)nc3-c3ncccn3)c2cc1F [Compound 158, 4-(5,6-Dimethyl-2-pyrimidin-2-yl-pyridin-3-yloxy)-6-fluoro-7-methoxy-quinoline] | – | – | – | – | inhibition at 3 µM [5]: 98%; inhibition at 10 µM [6]: 100%
9 | COc1cc2c(Oc3cc(C)c(C)nc3-c3ccccn3)ccnc2cc1Cl [Compound 105, 3-(7-Chloro-6-methoxy-quinolin-4-yloxy)-5,6-dimethyl-[2,2']bipyridine] | – | – | – | – | inhibition at 3 µM [5]: 100%; inhibition at 10 µM [6]: 100%
10 | CCC(=O)c1ccc(OCc2ccccc2)cc1Oc1ccnc2cc(OC)c(OC)cc12 [Compound r45] | – | – | 0 | 67 | –
11 | CCc1ccc(Oc2ccnc3cc(OC)c(OC)cc23)c(-c2ccccn2)n1 [Compound 37, 3-(6,7-Dimethoxy-quinolin-4-yloxy)-6-ethyl-[2,2']bipyridine] | – | – | – | – | inhibition at 1 µM (TGFβ-1 2 ng/ml, 4 hr, Table 1A): 98%; inhibition at 3 µM [5]: 100%
12 | COc1ccc(Oc2ccnc3cc(OC)c(OC)cc23)c(C(O)Cc2ccccn2)c1 (stereo not shown) [r166] | 24 | 67 | – | – | –
13 | CCCOC(=O)c1cc2ccccc2cc1Oc1ccnc2cc(OCCCn3ccnc3)c(OC)cc12 [Compound r327] | 89 | 100 | – | – | –
14 | CCN(CC)CCOc1cc2nccc(Oc3ccc(C)cc3C(=O)c3ccccc3)c2cc1OC [Compound r125] | – | – | 98 | 100 | –
15 | COc1cc2c(Oc3cc(C)c(C)nc3-c3cccnc3)ccnc2cc1OCC(CO)CO [Compound r350] | 96 | – | – | – | –
16 | COc1cc2c(Oc3ccc(C)cc3C(=O)c3ccccc3)ccnc2cc1OCC(O)CNCCO (stereo not shown) [Compound r152] | – | – | 99 | 100 | –
17 | COc1cc2nccc(Oc3cc(Cl)c(C)cc3C(C)=O)c2cc1OC [Compound r184] | 100 | 100 | – | – | –
18 | COc1cc2c(Oc3cc4ccccc4nc3C(C)=O)ccnc2cc1OCC1CO1 (stereo not shown) [Compound r394] | 83 | 100 | – | – | –
19 | COc1cc2nccc(Oc3cc4ccccc4cc3C(C)=O)c2cc1OC [Compound r200, 1-[3-(6,7-Dimethoxy-quinolin-4-yloxy)-naphthalene-2-yl]-ethanone] | 94 | 100 | – | – | –
20 | COc1cc2nccc(Oc3ccc(C)cc3C(=O)c3ccco3)c2cc1OC [Compound r60] | – | – | 63 | 98 | –
21 | COc1cc2c(Oc3cc(C)c(C)nc3-c3cccnc3)ccnc2cc1OCC(O)CO (stereo not shown) [Compound r349] | 96 | – | – | – | –
22 | Cc1cc(Oc2ccnc3ccc(-c4cccn4C(=O)OC(C)(C)C)cc23)c(-c2ccccn2)nc1C [Compound 167, 2-[4-(5,6-Dimethyl-[2,2']bipyridinyl-3-yloxy)-quinolin-6-yl]-pyrrole-1-carboxylate tert-butyl ester] | – | – | – | – | inhibition at 3 µM [5]: 35%; inhibition at 10 µM [6]: 85%
23 | COc1cc2c(Oc3cc(C)c(C)nc3-c3ccccn3)ccnc2cc1OCCCO [Compound r340] | 99 | – | – | – | –
24 | c1ccc(-c2nc3ncccc3cc2Oc2ccnc3cccnc23)cc1 [Compound 73, 4-(2-Phenyl-[1,8]naphthyridin-3-yloxy)-[1,5]naphthyridine] | – | – | – | – | inhibition at 3 µM [5]: 26%; inhibition at 10 µM [6]: 80%
25 | COc1cc2nccc(Oc3ccc(C)cc3C(=O)c3ccc(OCCCl)cc3)c2cc1OC [Compound r189] | 86 | 100 | – | – | –

Row | SMILES | inhibition at 3 µM [1] [%] | inhibition at 10 µM [2] [%] | inhibition at 3 µM [3] [%] | inhibition at 10 µM [4] [%] | further results
26 | COc1cc2nccc(Oc3ccc(C)cc3-c3ccno3)c2cc1OC [r12] | – | – | 21 | 89 | –
27 | COc1cc2c(Oc3ccc(C)cc3C(=O)c3ccccc3)ccnc2cc1OCCCCN1CCC(CO)CC1 [Compound r144] | – | – | 99 | 100 | –
28 | Cc1cc(Oc2ccnc3cc(-c4cc5ccccc5o4)ccc23)c(-c2ccccn2)nc1C [Compound 173, 3-(7-Benzofuran-2-yl-quinolin-4-yloxy)-5,6-dimethyl-[2,2']bipyridine] | – | – | – | – | inhibition at 3 µM [5]: 57%; inhibition at 10 µM [6]: 92%
29 | COc1cc2nccc(Oc3cc4ccccc4nc3-c3ncccn3)c2cc1OC [Compound 92, 6,7-Dimethoxy-4-(2-pyrimidin-2-yl-quinolin-3-yloxy)-quinoline] | – | – | – | – | inhibition at 1 µM (TGFβ-1 2 ng/ml, 4 hr, Table 1A): 62%; inhibition at 3 µM [5]: 98%
30 | CCc1nc2ncccc2cc1Oc1ccnc2cc(OC)c(F)cc12 [Compound 161, 2-Ethyl-3-(6-fluoro-7-methoxy-qulnolin-4-yloxy)-[1,8]naphthyridine] | – | – | – | – | inhibition at 3 µM [5]: 68%; inhibition at 10 µM [6]: 95%
31 | COc1cc2nccc(Oc3ccc(C)nc3)c2cc1OC [Compound r115, 4-[(6-Methyl-3-pyridyl)oxy]-6,7-dimethoxyquinoline] | – | – | 74 | 97 | –
32 | COc1cc2nccc(Oc3cnc4ccccc4c3)c2cc1OC [r275] | 45 | 90 | – | – | –
33 | CC=Cc1ccccc1Oc1ccnc2cc(OC)c(OC)cc12 [Compound r2] | – | – | 13 | 88 | –
34 | COc1cc2nccc(Oc3ccc(C)nc3-c3ccc(C(C)=O)cc3)c2cc1OC [Compound r246] | 64 | 93 | – | – | –
35 | COc1cc2c(Oc3cc4cnccc4nc3C)ccnc2cc1OCc1ccccc1 [Compound r406] | 56 | 96 | – | – | –
36 | COc1cc2nccc(Oc3ccc(OCc4ccccc4)cc3C(C)=O)c2cc1OC [Compound r175, 1-[5-Benzyloxy-2-(6,7-dimethoxy-quinotin-4-yloxy)-phenyl]-ethanone] | 13 | 60 | – | – | –
37 | COc1cc2nccc(Oc3ccccc3C(=O)OCC(C)C)c2cc1OC [Compound r97] | – | – | 14 | 92 | –
38 | COc1cc2nccc(Oc3cccnc3OC3CCCC3)c2cc1OC [Compound r204, 4-(2-Cyclopentyloxy-pyridin-3-yloxy)-6,7-dimethoxy-quinoline] | 14 | 77 | – | – | –
39 | COc1cc2nccc(Oc3ccc(SC)nc3-c3cccnc3)c2cc1OC [r267] | 34 | 83 | – | – | –
40 | COc1cc2nccc(Oc3cc4c(nc3-c3ccccc3)NCCC4)c2cc1C(=O)NCc1ccccc1 [Compound 99, 7-Methoxy-4-(2-phenyl-5,6,7,8-tetrahydro-[1,8]naphthyridin-3-yloxy)-quinoline-6-carboxylate benzylamide] | – | – | – | – | inhibition at 3 µM [5]: 76%; inhibition at 10 µM [6]: 92%
41 | CCOC(=O)c1cc(-n2cccc2)ccc1Oc1ccnc2cc(OC)c(OC)cc12 [Compound r90] | – | – | 54 | 95 | –
42 | CCOC(=O)/C(C)=C/c1cc(OC)ccc1Oc1ccnc2cc(OC)c(OC)cc12 [r8] | – | – | 10 | 59 | –
43 | COc1cc2nccc(Oc3ccc(C)nc3-c3ccc(Cl)cc3)c2cc1OC [Compound r252] | 16 | 78 | – | – | –
44 | COc1cc2nccc(Oc3cc4ccncc4cc3Br)c2cc1OC [Compound r301, 4-(7-Bromo-isoquinolin-6-yloxy)-6,7-dimethoxy-quinoline] | 20 | 75 | – | – | –
45 | CCc1ccc(Oc2ccnc3cc(OC)c(F)cc23)c(-c2ccccn2)n1 [Compound 162, 6-Ethyl-3-(6-fluoro-7-methoxy-quinolin-4-yloxy)-[2,2']bipyridine] | – | – | – | – | inhibition at 3 µM [5]: 100%; inhibition at 10 µM [6]: 100%
46 | COc1ccc(Oc2ccnc3cc(OC)c(OC)cc23)c(C(=O)NC2CCCCC2)c1 [Compound r112] | – | – | 44 | 91 | –
47 | CCCOC(=O)c1ccccc1Oc1ccnc2cc(OC)c(OC)cc12 [Compound r94] | – | – | 39 | 97 | –
48 | CCN(C)CCOc1ccc2nccc(Oc3ccc(C)nc3-c3ncccn3)c2c1 [Compound 223, ethyl-methyl-{2-[4-(6-methyl-2-pyrimidin-2-yl-pyridin-3-yloxy)-quinolin-6-yloxy]-ethyl}-amine] | – | – | – | – | inhibition at 3 µM [5]: 52%; inhibition at 10 µM [6]: 90%
49 | COc1cc2nccc(Oc3cc4ccccc4nc3CN(C(C)C)C(C)C)c2cc1OC [Compound r277, [3-(6,7-Dimethoxy-quinolin-4-yloxy)-quinolin-2-ylmethyl]-diisopropyl-amine] | 32 | 89 | – | – | –
50 | COc1cc2nccc(Oc3ccc(C)nc3-c3ccc(N(C)C)cc3)c2cc1OC [Compound r247] | 93 | 100 | – | – | –
